Holding throughout (assay type): cell-based
Assay [1] deals with Acinetobacter baumannii/haemolyticus AB-3167. The experiment in a line: minimum inhibitory concentration (MIC) testing according to CLSI guidelines, Acinetobacter. The following applies: multidrug-resistant clinical isolate AB-3167, overnight incubation, lower of duplicate values; for MIC: Acinetobacter baumannii, read-out: AB-MBT: Acinetobacter baumanii AB-3167: MIC (MstRcnt). In outline:
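Broth dilution MIC per CLSI M7-A8/M100-S20 against multidrug-resistant clinical isolate AB-3167, using 2-fold drug dilutions and overnight incubation; MIC is the lowest concentration without visible growth. Duplicates within 2-fold reported as the lower value, with control strains and reference compounds in range.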

Assay [2] deals with Pseudomonas aeruginosa UC-12120. Description: minimum inhibitory concentration (MIC) testing according to CLSI guidelines, Pseudomonas aeruginosa. The following applies: UC-12120, wild-type, labeled as 1091-05, overnight incubation, lower of duplicate values; for MIC: Pseudomonas aeruginosa, UC12120, read-out: AB-MBT: Pseudomonas aeruginosa 1091-05: MIC (MstRcn). In outline:
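Broth dilution MIC per CLSI guidelines against wild-type P. aeruginosa UC-12120 (1091-05), using 2-fold drug dilutions and overnight incubation with visual reading of lowest growth-inhibiting concentration. Tested in duplicate; lower value reported when within 2-fold, with control organisms and reference compounds for quality control.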

The subject of assay [3] is Klebsiella pneumoniae 1000-02. Description: minimum inhibitory concentration (MIC) testing according to CLSI guidelines, Klebsiella pneumoniae. The following applies: ciprofloxacin-resistant, ESBL-expressing clinical isolate 1000-02, overnight incubation, lower of duplicate values; for MIC: Klebsiella pneumoniae, read-out: AB-MBT: Klebsiella pneumoniae 1000-02: MIC (MstRcnt). The method in brief: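 MIC by CLSI broth dilution with 2-fold concentration steps and overnight incubation; lowest concentration visibly inhibiting growth versus drug-free control. Ciprofloxacin-resistant, ESBL-expressing clinical isolate 1000-02. Run in duplicate, lower value reported when within 2-fold, with QC organisms and reference compounds per run.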

Molecules are shown by their SMILES. Converted amounts (≈) assume the structure as drawn.

Consider `CC(C)(O/N=C(\C(=O)N[C@@H]1C(=O)N(S(=O)(=O)[O-])[C@@H]1CNC(=O)c1coc(-c2cc(=O)c(O)c[nH]2)n1)c1csc(N)n1)C(=O)[O-].[Na+].[Na+]` [Example 18, 2-({[(1Z)-1-(2-amino-1,3-thiazol-4-yl)-2-({(2R,3S)-2-[({[2-(5-hydroxy-4-oxo-1,4-dihydropyridin-2-yl)-1,3-oxazol-4-yl]carbonyl}amino)methyl]-4-oxo-1-sulfoazetidin-3-yl}amino)-2-oxoethylidene]amino}oxy)-2-methylpropanoic acid, bis sodium salt], for which the “AB-MBT: Acinetobacter baumanii AB-3167: MIC (MstRcnt)” value in assay [1] worked out at 1.00 µg/mL. Further, the “AB-MBT: Pseudomonas aeruginosa 1091-05: MIC (MstRcn)” value in assay [2] turned out to be 0.250 µg/mL. Moreover, the “AB-MBT: Klebsiella pneumoniae 1000-02: MIC (MstRcnt)” value in assay [3] came out at 0.500 µg/mL.

Take `CC(C)(O/N=C(\C(=O)N[C@@H]1C(=O)N(S(=O)(=O)O)[C@@H]1CNC(=O)C1CN(C(=O)c2cc(=O)c(O)c[nH]2)C1)c1csc(N)n1)C(=O)O` [Example 8, 2-({[(1Z)-1-(2-amino-1,3-thiazol-4-yl)-2-{[(2R,3S)-2-{[({1-[(5-hydroxy-4-oxo-1,4-dihydropyridin-2-yl)carbonyl]azetidin-3-yl}carbonyl)amino]methyl}-4-oxo-1-sulfoazetidin-3-yl]amino}-2-oxoethylidene]amino}oxy)-2-methylpropanoic acid]: the MIC was 1 µg/mL (≈ 1.49 µM) in assay [1], 1 µg/mL (≈ 1.49 µM) in assay [2] and 4 µg/mL (≈ 5.96 µM) in assay [3].

For `CC(C)(O/N=C(\C(=O)N[C@@H]1C(=O)N(S(=O)(=O)[O-])[C@@H]1CNC(=O)c1coc(-c2cc(=O)c(O)cn2O)n1)c1csc(N)n1)C(=O)[O-].[Na+].[Na+]` [Example 17, 2-({[(1Z)-1-(2-amino-1,3-thiazol-4-yl)-2-({(2R,3S)-2-[({[2-(1,5-dihydroxy-4-oxo-1,4-dihydropyridin-2-yl)-1,3-oxazol-4-yl]carbonyl}amino)methyl]-4-oxo-1-sulfoazetidin-3-yl}amino)-2-oxoethylidene]amino}oxy)-2-methylpropanoic acid, bis sodium salt], the “AB-MBT: Acinetobacter baumanii AB-3167: MIC (MstRcnt)” value in assay [1] stood at 1.00 µg/mL. For the same compound, the “AB-MBT: Pseudomonas aeruginosa 1091-05: MIC (MstRcn)” value in assay [2] was determined as 0.125 µg/mL. For the same compound, the “AB-MBT: Klebsiella pneumoniae 1000-02: MIC (MstRcnt)” value in assay [3] was 1.00 µg/mL.

For `CC(C)(O/N=C(\C(=O)N[C@@H]1C(=O)N(S(=O)(=O)O)[C@@H]1CNC(=O)NCc1cc(=O)c(O)cn1O)c1csc(N)n1)C(=O)O` [Example 4, 2-({[(1Z)-1-(2-amino-1,3-thiazol-4-yl)-2-({(2R,3S)-2-[({[(1,5-dihydroxy-4-oxo-1,4-dihydropyridin-2-yl)methyl]carbamoyl}amino)methyl]-4-oxo-1-sulfoazetidin-3-yl}amino)-2-oxoethylidene]amino}oxy)-2-methylpropanoic acid], the MIC in assay [1] was 0.5 µg/mL (≈ 0.79 µM); in assay [2] it was 0.125 µg/mL (≈ 0.198 µM); in assay [3], 0.125 µg/mL (≈ 0.198 µM).

Source of the values: US20130252935A1, “Monobactams” (PFIZER INC., priority 2010, published 2013).
